Measurements from patent US20240197596A1, “COMPOUNDS USEFUL AS HAIR DYES” (National University of Singapore, priority 2021, published 2024).
≈ marks a conversion by molar mass, not a printed value. Each block holds one compound with its values, some of them ahead of it.

Experiments:
THP-1 cells [1] = assay: MTT assay on THP-1 cells (CV75); type: cell-based, human
Protocol: THP-1 (human acute monocytic leukaemia cell line) cell suspension was adjusted to 1×10^5 cells per well and seeded in 96-well plates. The plate was incubated at 37° C. with 5% CO2. After 24 h, 10 mM stock solutions of N1-N13 were prepared in autoclaved milli-Q water. A series of concentrations diluted in media was prepared and added to the wells. Each concentration was performed in 6-replicates, and seeded wells with only media and no compound were used as controls while wells with only media were used as blanks. The plate was incubated for 24 h, after which 100 μL of MTT reagent was added and the plate was further incubated for 3 h before adding 100 μL of DMSO. Subsequently, the plate was shaken for 20 min, and then absorbance at 570 nm was determined using a Bio-Tek plate reader. Percentage cell viability was calculated and CV75 values were determined.

CD54 = assay: h-CLAT assay, CD54 expression by flow cytometry; type: cell-based, human; settings: for EC200 for CD54 (lowest concentration inducing % RFI of 200): THP-1 cells, 24 h; for RFI for CD54: at CV75, 24 h
Protocol: (§1) The assay was conducted as per the literature (Toxicol In Vitro, 2006, 20, 767-73). THP-1 cells were cultured in 24-well plates (1×10^6 cells/1 mL/well) with various concentrations of each chemical (N1-N13), +ve control (DNCB), −ve control for 24 h.
(§2) THP-1 cells were cultured in 24-well plates (1×10^6 cells/mL/well) and treated with recommended concentrations of each chemical (N1-N13), positive control (DNCB) or negative control (SLS) for 24 h. THP-1 cells were cultured and treated with 8 doses of N1-N13 based on the CV75 namely, 1.2×CV75, 1×CV75, 1/1.2×CV75, 1/1.2^2×CV75, 1/1.23×CV75, 1/1.24×CV75, 1/1.2^5×CV75 and 1/1.2^6×CV75. After 24 h, cells were transferred to 1.5 mL of microtubes and centrifuged at 450 g, 5 min, 4° C. Supernatant was discarded and cells were washed with 1 mL of FACS buffer (PBS+FBS+HEPES). The cells were centrifuged at 450 g, 5 min, 4° C. 50 μL of Fc block (0.01% of Globlins Cohn fraction II, III) was added and incubated for 10 min at 4° C. The cells were stained with 20 μL APC CD54 (Mouse IgG1, K, BD Biosciences, San Diego, CA, USA), 20 μL FITC CD86 (Mouse IgG1, K, BD Biosciences, San Diego, CA, USA) or their respective isotype controls and incubated for 15 min at room temperature in dark. After incubation, the antibodies were diluted with 200 μl FACS buffer. The cells were washed with 1 mL FACS buffer twice. Further, 200 μL Propidium iodide (PI, 0.625 μg/mL) prepared in FACS buffer was added before the flow cytometry analysis. Flow cytometric analysis was performed with BD LSR Fortessa™ (Becton Dickinson, San Jose, CA, USA) In total, 10,000 living cells were analysed, and data were processed using Flowjo software (v10.6, Ashland, OR, USA). The test concentration providing a cell viability of 75% (CV75) was derived from the dose response curve and was calculated by log-linear interpolation.
(§3) Geometric mean fluorescence intensity (MFI) was measured for CD54^+ and CD86^+ cells separately and percentage relative fluorescence intensity (% RFI), reflective of CD86 and CD54 relative expression was calculated as described below. RFI was not calculated if cell viability fell below 50%.
(§4) All chemicals were tested in three independent experiments. If in two of three independent experiments at any dose exceeded 150% RFI for CD86, or 200% RFI for CD54, the chemicals could be identified as a sensitizer. Otherwise it is identified as a non-sensitizer.

CD86 = assay: h-CLAT assay, CD86 expression by flow cytometry; type: cell-based, human; settings: for EC150 for CD86 (lowest concentration inducing % RFI of 150): THP-1 cells, 24 h; for RFI for CD86: at CV75, 24 h
Protocol: as §1, §2, §3, §4

HaCaT cells = settings: data from J Hazard Mat., 2021, 402, 123712; cited from earlier work
[2] = Thermodynamic solubility assay (modified shake flask, LC-MS/MS); settings: for solubility at 24 h: 25 °C, pH 7, water, thermodynamic from solid
Protocol: The aqueous solubilities (pH=7) of these compounds were measured using the modified shake flask method and LC-MS/MS. Each hair dye was added into a 2 mL glass vial containing Milli-Q water (1 mL) to form the precipitates at 25° C. Then the mixture was subjected to a solubility-equilibrium stage. The vials were shaken at 300 rpm at 25° C. for 24 h. The precipitate was separated by centrifugation at 23,000 g for 20 min. Subsequently, 0.5 mL of supernatant was transferred into a 1 mL Eppendorf tube, and it was centrifuged again as mentioned above. The supernatant was then used for LC-MS/MS analysis.
The mass spectrometric analysis was performed by use of a AB SCIEX QTRAP 5500 tandem mass spectrometry (MS/MS) system (AB SCIEX, Framingham, MA, USA) operating in triple quadrupole positive mode (ESI+) equipped with an AB Sciex Turbo Ion Spray interface. Acquisition and analysis of data were performed with Analyst software ver. 1.4.2 (Applied Biosystems) which performed all chromatographic peak integration. For each hair dye, a standard curve consisting of four concentrations was established.
Solvent A was composed of 0.1% [v/v] formic acid in Milli-Q water while solvent B was composed of 0.1% [v/v] formic acid in acetonitrile. A mobile phase gradient pumped at 0.6 mL/min was used to elute the hair dyes from the column. The column was equilibrated for 1 min resulting in a total run time of 5 min. The injection volume was 5.0 μL for all derivatives. To prevent compound accumulation on the needle, 50% methanol in ACN was used as needle wash for 30 s per sample.

[3] = data from J Hazard Mat., 2021, 402, 123712, cited from earlier work
[4] = in vivo; cited from earlier work
IL-8 = settings: data from J Hazard Mat., 2021, 402, 123712 (FIG. 6); cited from earlier work
IL-1α = settings: data from J Hazard Mat., 2021, 402, 123712 (FIG. 6); cited from earlier work
THP-1 cells [5] = assay: h-CLAT assay on THP-1 cells: markers against OECD cut-off, prediction, cell viability; type: cell-based, human; settings: for CD54 and CD86 marker expression against OECD cut-off: 8 doses based on CV75, 24 h
Protocol: as §1, §2, §3, §4

[6] = Milli-Q water, Water Solubility, library of old series (Table 4)
[7] = library of old series (Table 4)

- solubility at 24 h [2, 6]: 5 µg/mL (≈ 13 µM)
SMILES: CCCCCCNc1ccc(Nc2ccc(N)cc2)cc1OCCCCCC [PPD7, reference compound]

- Water Solubility [2, 7]: Insoluble
SMILES: Nc1ccc(Nc2ccc(Nc3ccc(Nc4ccc(N)cc4)cc3)cc2)cc1 [PPD8, reference compound]

- Water Solubility [2, 7]: Insoluble
SMILES: Cc1ccc(CNc2ccc(Nc3ccc(N)cc3)cc2)cc1 [PPD9, reference compound]

- Water Solubility [2, 7]: Insoluble
SMILES: Cc1ccc(CNc2ccc(Nc3ccc(Nc4ccc(N)cc4)cc3)cc2)cc1 [PPD10, reference compound]

- Water Solubility [2, 7]: Insoluble
SMILES: Nc1ccc(CNc2ccc(Nc3ccc(NCc4ccc([N+](=O)[O-])cc4)cc3)cc2)cc1 [PPD11, reference compound]

- Water Solubility [2, 7]: Insoluble
SMILES: COc1ccc(CNc2ccc(Nc3ccc(NCc4ccc(O)cc4)cc3)cc2)cc1 [PPD12, reference compound]

- Water Solubility [2, 7]: Insoluble
SMILES: Cc1ccc(CNc2ccc(Nc3ccc(NCc4ccc(C)cc4)cc3)cc2)cc1 [PPD13, reference compound]

- Water Solubility [2, 7]: Insoluble
SMILES: Oc1ccc(CNc2ccc(Nc3ccc(NCc4ccc(O)cc4)cc3)cc2)cc1 [PPD14, reference compound]

- solubility at 24 h [2, 6]: 10 µg/mL (≈ 42.3 µM)
SMILES: CCCCCCOC(=O)c1cc(N)ccc1N [PPD15, reference compound]

- Water Solubility [2, 7]: Insoluble
SMILES: CCCCCCNc1ccc(N)cc1OCCCCCC [PPD16, reference compound]

Continued, compound first:

SMILES: O=[N+]([O-])c1ccc(Cl)c([N+](=O)[O-])c1 [DNCB]
- CV75 (concentration affording 75% cell viability), 1 × CV75 (THP-1 cells [1]; THP-1 cells, 24 h): 3.0 µg/mL
- EC200 for CD54 (lowest concentration inducing % RFI of 200) (CD54): 1.5 µg/mL
- RFI for CD54 (CD54): 450%
- EC150 for CD86 (lowest concentration inducing % RFI of 150) (CD86): 1.4 µg/mL
- RFI for CD86 (CD86): 326%

SMILES: COCc1cc(N)ccc1N [ME-PPD, 2-(methoxymethyl)benzene-1,4-diamine]
- IC50 (HaCaT cells): 334 µM
- CV75 (concentration affording 75% cell viability), 1 × CV75 (THP-1 cells [1]; THP-1 cells, 24 h): 144.6 µg/mL
- solubility at 24 h [2, 6]: 78000 µg/mL (≈ 512000 µM)
- Cumulative amount at 8th hour ([3]; 8 h): 0.519 μg/cm^2
- Cumulative amount comparison of PPD vs derivatives ([3]; 8 h): 10.4
- Permeated through skin into receptor [3]: 0.0044 % of applied compound dose
- Recovered in donor compartment [3]: 89 % of applied compound dose
- Recovered in skin [3]: 3.6 % of applied compound dose
- Recovered in skin outside diffusion area [3]: 0.0042 % of applied compound dose
- Recovered in skin swabs [3]: 0.69 % of applied compound dose
- Recovered on parafilm and in washes [3]: 1.84 % of applied compound dose
- Total recovery (mean percentage parent compound recovery) [3]: 95 ± 0.79%
- PPD-allergic individuals who develop an allergic reaction [4]: approximately 30%
- release of IL-8 (IL-8): higher concentrations
- EC200 for CD54 (lowest concentration inducing % RFI of 200) (CD54): 120.5 µg/mL
- release of IL-1α (IL-1α): higher concentrations
- EC150 for CD86 (lowest concentration inducing % RFI of 150) (CD86): 117.9 µg/mL
- CD54 and CD86 marker expression against OECD cut-off (THP-1 cells [5]): above the recommended threshold

SMILES: Nc1ccc(Nc2ccc(N)cc2)cc1 [PPD 1, reference compound]
- solubility at 24 h [2, 6]: 500 µg/mL (≈ 2510 µM)

SMILES: Nc1ccc(Nc2ccc(Nc3ccc(N)cc3)cc2)cc1 [PPD 2, reference compound]
- solubility at 24 h [2, 6]: 100 µg/mL (≈ 344 µM)

SMILES: CCCCC(CC)COc1cc(N)ccc1N (stereo not drawn) [PPD 3, reference compound]
- solubility at 24 h [2, 6]: 80 µg/mL (≈ 338 µM)

SMILES: CCCCCCOc1cc(N)ccc1N [PPD 4, reference compound]
- solubility at 24 h [2, 6]: 80 µg/mL (≈ 384 µM)

SMILES: CCCCCCOc1cc(Nc2ccc(N)cc2)ccc1N [PPD 5, reference compound]
- Water Solubility [2, 7]: Insoluble

SMILES: CCCCCCOC(=O)c1cc(Nc2ccc(N)cc2)ccc1N [PPD 6, reference compound]
- solubility at 24 h [2, 6]: 1 µg/mL (≈ 3.05 µM)

SMILES: Nc1ccc(N)cc1 [PPD, para-phenylenediamine]
- IC50 (HaCaT cells): 23.4 µM
- CV75 (concentration affording 75% cell viability), 1 × CV75 (THP-1 cells [1]; THP-1 cells, 24 h): 65.4 µg/mL
- solubility at 24 h [2]: 40000 µg/mL (≈ 370000 µM)
- solubility in per cent ([2]; water): 4%
- Cumulative amount at 8th hour ([3]; 8 h): 5.4 μg/cm^2
- Permeated through skin into receptor [3]: 0.038 % of applied compound dose
- Recovered in donor compartment [3]: 83 % of applied compound dose
- Recovered in skin [3]: 4.3 % of applied compound dose
- Recovered in skin outside diffusion area [3]: 0.0050 % of applied compound dose
- Recovered in skin swabs [3]: 0.82 % of applied compound dose
- Recovered on parafilm and in washes [3]: 2.19 % of applied compound dose
- Total recovery (mean percentage parent compound recovery) [3]: 93 ± 0.52%
- release of IL-8 (IL-8): higher concentrations
- EC200 for CD54 (lowest concentration inducing % RFI of 200) (CD54): 35.0 µg/mL
- RFI for CD54 (CD54): 270%
- release of IL-1α (IL-1α): higher concentrations
- EC150 for CD86 (lowest concentration inducing % RFI of 150) (CD86): 39.4 µg/mL
- RFI for CD86 (CD86): 210%
- CD54 and CD86 marker expression against OECD cut-off (THP-1 cells [5]): above the recommended threshold
- marker induction, times lower than DNCB (THP-1 cells [5]; human, 24 h): 1.6

SMILES: Cc1cc(N)ccc1N [PTD, 2-methylbenzene-1,4-diamine]
- IC50 (HaCaT cells): 73.1 µM
- CV75 (concentration affording 75% cell viability), 1 × CV75 (THP-1 cells [1]; human): 43.4 µg/mL
- solubility at 24 h [2]: 2500 µg/mL (≈ 20500 µM)
- Recovered in donor compartment [3]: 95 % of applied compound dose
- Recovered in skin [3]: 2.1 % of applied compound dose
- Recovered in skin outside diffusion area [3]: 0.0077 % of applied compound dose
- Recovered in skin swabs [3]: 0.48 % of applied compound dose
- Recovered on parafilm and in washes [3]: 0.68 % of applied compound dose
- Total recovery (mean percentage parent compound recovery) [3]: 99 ± 0.33%
- release of IL-8 (IL-8): higher concentrations
- EC200 for CD54 (lowest concentration inducing % RFI of 200) (CD54): 35.35 µg/mL
- release of IL-1α (IL-1α): higher concentrations
- EC150 for CD86 (lowest concentration inducing % RFI of 150) (CD86): 34.3 µg/mL
- CD54 and CD86 marker expression against OECD cut-off (THP-1 cells [5]): above the recommended threshold

SMILES: CCCCCCCCCCCCOS(=O)(=O)[O-].[Na+] [SLS, reference compound]
- CV75 (concentration affording 75% cell viability), 1 × CV75 (THP-1 cells [1]; THP-1 cells, 24 h): 56.0 µg/mL
- CD54 and CD86 marker expression against OECD cut-off (THP-1 cells [5]): did not express markers
